Test results reported in patent US9714244B2, “Substituted pyrido[4,3-d]pyrimidines as Wee-1 inhibitors” (ALMAC DISCOVERY LIMITED, priority 2013, dated 2017).

Experiments:
CSNK1G2 (CK1 gamma 2) = CSNK1G2 (CK1 gamma 2) (Homo sapiens (Human), UniProt P78368); test: SelectScreen Kinase Profiling: CSNK1G2; format: biochemical; conditions: 300-350 nM
Source text: (§1) Table 2 below highlights the selectivity of a representative compound of the invention against a panel of 50 kinases (assessed using the Invitrogen SelectScreen® Kinase Profiling Service).

IKBKB (IKK beta) = IKBKB (IKK beta) (Homo sapiens (Human), UniProt O14920); test: SelectScreen Kinase Profiling: IKBKB; format: biochemical; conditions: 300-350 nM
Source text: as §1

PDGFRB (PDGFR beta) = PDGFRB (PDGFR beta) (Homo sapiens (Human), UniProt P09619); test: SelectScreen Kinase Profiling: PDGFRB; format: biochemical; conditions: 300-350 nM
IRAK4 = IRAK4 (Homo sapiens (Human), UniProt Q9NWZ3); test: SelectScreen Kinase Profiling: IRAK4; format: biochemical; conditions: 300-350 nM
Source text: as §1

MET (cMet) = MET (cMet) (Homo sapiens (Human), UniProt P08581); test: SelectScreen Kinase Profiling: MET; format: biochemical; conditions: 300-350 nM
Source text: as §1

RPS6KA3 (RSK2) = RPS6KA3 (RSK2) (Homo sapiens (Human), UniProt P51812); test: SelectScreen Kinase Profiling: RPS6KA3; format: biochemical; conditions: 300-350 nM
MAP2K1 (MEK1) = MAP2K1 (MEK1) (Homo sapiens (Human), UniProt Q02750); test: SelectScreen Kinase Profiling: MAP2K1; format: biochemical; conditions: 300-350 nM
Source text: as §1

CHEK1 (CHK1) = CHEK1 (CHK1) (Homo sapiens (Human), UniProt O14757); test: SelectScreen Kinase Profiling: CHEK1; format: biochemical; conditions: 300-350 nM
Source text: as §1

PLK1 = PLK1 (Homo sapiens (Human), UniProt P53350); test: SelectScreen Kinase Profiling: PLK1; format: biochemical; conditions: 300-350 nM
Source text: as §1

DYRK3 = DYRK3 (Homo sapiens (Human), UniProt O43781); test: SelectScreen Kinase Profiling: DYRK3; format: biochemical; conditions: 300-350 nM
Source text: as §1

NTRK1 (TRKA) = NTRK1 (TRKA) (Homo sapiens (Human), UniProt P04629); test: SelectScreen Kinase Profiling: NTRK1; format: biochemical; conditions: 300-350 nM
Source text: as §1

FGFR1 = FGFR1 (Homo sapiens (Human), UniProt P11362); test: SelectScreen Kinase Profiling: FGFR1; format: biochemical; conditions: 300-350 nM
Source text: as §1

AMPK A1/B1/G1 = AMPK A1/B1/G1 (Homo sapiens (Human), UniProt Q13131); test: SelectScreen Kinase Profiling: AMPK; format: biochemical; conditions: 300-350 nM
Source text: as §1

PRKACA (PKA) = PRKACA (PKA) (Homo sapiens (Human), UniProt P17612); test: SelectScreen Kinase Profiling: PRKACA; format: biochemical; conditions: 300-350 nM
Source text: as §1

IGF1R = IGF1R (Homo sapiens (Human), UniProt P08069); test: SelectScreen Kinase Profiling: IGF1R; format: biochemical; conditions: 300-350 nM
Source text: as §1

LCK = LCK (Homo sapiens (Human), UniProt P06239); test: SelectScreen Kinase Profiling: LCK; format: biochemical; conditions: 300-350 nM
Source text: as §1

[1] = CLint estimates using human liver microsomes; format: in vitro ADME; conditions: pH 7.4, read-out: HLM activity (HLM CLint)
ABL1 = ABL1 (Homo sapiens (Human), UniProt P00519); test: SelectScreen Kinase Profiling: ABL1; format: biochemical; conditions: 300-350 nM
Source text: as §1

KDR (VEGFR2) = KDR (VEGFR2) (Homo sapiens (Human), UniProt P35968); test: SelectScreen Kinase Profiling: KDR; format: biochemical; conditions: 300-350 nM
Source text: as §1

Src = Src (Homo sapiens (Human), UniProt P12931); test: SelectScreen Kinase Profiling: SRC; format: biochemical; conditions: 300-350 nM
RET = RET (Homo sapiens (Human), UniProt P07949); test: SelectScreen Kinase Profiling: RET; format: biochemical; conditions: 300-350 nM
Source text: as §1

BTK = BTK (Homo sapiens (Human), UniProt Q06187); test: SelectScreen Kinase Profiling: BTK; format: biochemical; conditions: 300-350 nM
Source text: as §1

FLT3 = FLT3 (Homo sapiens (Human), UniProt P36888); test: SelectScreen Kinase Profiling: FLT3; format: biochemical; conditions: 300-350 nM
Source text: as §1

MAPK8 (JNK1) = MAPK8 (JNK1) (Homo sapiens (Human), UniProt P45983); test: SelectScreen Kinase Profiling: MAPK8; format: biochemical; conditions: 300-350 nM
Source text: as §1

ROCK1 = ROCK1 (Homo sapiens (Human), UniProt Q13464); test: SelectScreen Kinase Profiling: ROCK1; format: biochemical; conditions: 300-350 nM
Source text: as §1

EGFR (ErbB1) = EGFR (ErbB1) (Homo sapiens (Human), UniProt P00533); test: SelectScreen Kinase Profiling: EGFR; format: biochemical; conditions: 300-350 nM
CDK1/cyclin B = CDK1/cyclin B (Homo sapiens (Human), UniProt P06493); test: SelectScreen Kinase Profiling: CDK1/cyclin B; format: biochemical; conditions: 300-350 nM
Source text: as §1

MAP4K4 (HGK) = MAP4K4 (HGK) (Homo sapiens (Human), UniProt O95819); test: SelectScreen Kinase Profiling: MAP4K4; format: biochemical; conditions: 300-350 nM
Source text: as §1

AURKA (Aurora A) = AURKA (Aurora A) (Homo sapiens (Human), UniProt O14965); test: SelectScreen Kinase Profiling: AURKA; format: biochemical; conditions: 300-350 nM
Source text: as §1

PHKG2 = PHKG2 (Homo sapiens (Human), UniProt P15735); test: SelectScreen Kinase Profiling: PHKG2; format: biochemical; conditions: 300-350 nM
Source text: as §1

GSK3B (GSK3 beta) = GSK3B (GSK3 beta) (Homo sapiens (Human), UniProt P49841); test: SelectScreen Kinase Profiling: GSK3B; format: biochemical; conditions: 300-350 nM
Source text: as §1

SYK = SYK (Homo sapiens (Human), UniProt P43405); test: SelectScreen Kinase Profiling: SYK; format: biochemical; conditions: 300-350 nM
Source text: as §1

AKT1 (PKB alpha) = AKT1 (PKB alpha) (Homo sapiens (Human), UniProt P31749); test: SelectScreen Kinase Profiling: AKT1; format: biochemical; conditions: 300-350 nM
Source text: as §1

CHEK1 (CHK1), sequence (O14757 whole entry): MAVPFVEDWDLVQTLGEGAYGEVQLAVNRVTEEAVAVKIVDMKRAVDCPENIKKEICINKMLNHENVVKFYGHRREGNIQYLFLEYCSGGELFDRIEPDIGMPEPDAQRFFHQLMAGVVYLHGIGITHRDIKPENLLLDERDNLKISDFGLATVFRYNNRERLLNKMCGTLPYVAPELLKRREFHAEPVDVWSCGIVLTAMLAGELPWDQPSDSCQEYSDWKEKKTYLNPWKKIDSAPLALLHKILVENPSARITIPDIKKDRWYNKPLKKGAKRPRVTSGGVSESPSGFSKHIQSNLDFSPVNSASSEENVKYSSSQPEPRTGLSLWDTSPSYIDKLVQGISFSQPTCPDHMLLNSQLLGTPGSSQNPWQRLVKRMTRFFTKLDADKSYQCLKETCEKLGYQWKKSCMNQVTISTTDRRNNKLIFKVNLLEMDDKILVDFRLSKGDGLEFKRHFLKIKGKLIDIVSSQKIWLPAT
EGFR (ErbB1), sequence (P00533 25-1210): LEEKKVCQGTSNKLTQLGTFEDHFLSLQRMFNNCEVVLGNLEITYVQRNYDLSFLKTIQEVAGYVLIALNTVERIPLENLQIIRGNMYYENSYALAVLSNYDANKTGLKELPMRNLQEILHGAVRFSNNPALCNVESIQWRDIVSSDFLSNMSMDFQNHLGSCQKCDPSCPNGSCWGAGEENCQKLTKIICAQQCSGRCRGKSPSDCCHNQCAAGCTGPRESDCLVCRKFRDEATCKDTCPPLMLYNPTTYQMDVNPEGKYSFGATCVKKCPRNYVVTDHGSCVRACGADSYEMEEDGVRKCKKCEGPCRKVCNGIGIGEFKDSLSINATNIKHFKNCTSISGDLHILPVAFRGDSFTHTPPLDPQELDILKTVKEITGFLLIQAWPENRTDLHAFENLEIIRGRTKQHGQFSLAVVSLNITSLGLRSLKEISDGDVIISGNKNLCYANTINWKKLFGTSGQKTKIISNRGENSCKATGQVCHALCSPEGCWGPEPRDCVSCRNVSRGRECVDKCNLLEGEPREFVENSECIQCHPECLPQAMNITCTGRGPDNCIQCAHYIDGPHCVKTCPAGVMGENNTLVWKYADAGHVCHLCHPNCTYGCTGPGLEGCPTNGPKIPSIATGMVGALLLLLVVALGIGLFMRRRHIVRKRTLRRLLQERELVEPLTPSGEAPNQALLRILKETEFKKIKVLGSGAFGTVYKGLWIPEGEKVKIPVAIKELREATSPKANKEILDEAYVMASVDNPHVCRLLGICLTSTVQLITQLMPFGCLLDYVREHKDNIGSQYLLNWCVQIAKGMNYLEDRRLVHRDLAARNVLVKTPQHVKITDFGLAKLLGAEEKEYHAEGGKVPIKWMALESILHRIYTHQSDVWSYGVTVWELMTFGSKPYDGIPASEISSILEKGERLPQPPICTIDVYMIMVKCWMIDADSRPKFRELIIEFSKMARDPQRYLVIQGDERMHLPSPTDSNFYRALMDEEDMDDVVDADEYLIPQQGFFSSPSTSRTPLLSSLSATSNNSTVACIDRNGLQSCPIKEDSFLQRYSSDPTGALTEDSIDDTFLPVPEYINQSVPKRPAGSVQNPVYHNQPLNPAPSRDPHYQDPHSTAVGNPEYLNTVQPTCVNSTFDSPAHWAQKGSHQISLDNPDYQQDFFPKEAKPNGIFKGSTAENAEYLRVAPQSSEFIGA
BTK, sequence (Q06187 whole entry): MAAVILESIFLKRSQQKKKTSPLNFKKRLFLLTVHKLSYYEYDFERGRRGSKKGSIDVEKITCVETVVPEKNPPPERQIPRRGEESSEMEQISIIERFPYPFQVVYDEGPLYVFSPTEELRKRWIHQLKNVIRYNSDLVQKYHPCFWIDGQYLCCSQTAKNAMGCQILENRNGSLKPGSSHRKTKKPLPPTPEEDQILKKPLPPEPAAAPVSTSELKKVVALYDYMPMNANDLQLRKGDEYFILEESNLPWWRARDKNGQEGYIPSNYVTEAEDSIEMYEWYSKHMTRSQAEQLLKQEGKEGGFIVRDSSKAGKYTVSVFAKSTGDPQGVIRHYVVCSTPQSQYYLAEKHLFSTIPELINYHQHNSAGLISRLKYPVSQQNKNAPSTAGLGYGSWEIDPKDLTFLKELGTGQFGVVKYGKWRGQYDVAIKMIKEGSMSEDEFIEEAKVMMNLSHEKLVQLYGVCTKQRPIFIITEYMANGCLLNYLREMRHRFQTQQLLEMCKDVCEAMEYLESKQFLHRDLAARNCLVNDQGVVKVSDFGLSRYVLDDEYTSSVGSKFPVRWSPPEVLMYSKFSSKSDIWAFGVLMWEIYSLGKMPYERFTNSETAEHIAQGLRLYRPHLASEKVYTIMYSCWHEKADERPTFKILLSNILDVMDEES
LCK, sequence (P06239 whole entry): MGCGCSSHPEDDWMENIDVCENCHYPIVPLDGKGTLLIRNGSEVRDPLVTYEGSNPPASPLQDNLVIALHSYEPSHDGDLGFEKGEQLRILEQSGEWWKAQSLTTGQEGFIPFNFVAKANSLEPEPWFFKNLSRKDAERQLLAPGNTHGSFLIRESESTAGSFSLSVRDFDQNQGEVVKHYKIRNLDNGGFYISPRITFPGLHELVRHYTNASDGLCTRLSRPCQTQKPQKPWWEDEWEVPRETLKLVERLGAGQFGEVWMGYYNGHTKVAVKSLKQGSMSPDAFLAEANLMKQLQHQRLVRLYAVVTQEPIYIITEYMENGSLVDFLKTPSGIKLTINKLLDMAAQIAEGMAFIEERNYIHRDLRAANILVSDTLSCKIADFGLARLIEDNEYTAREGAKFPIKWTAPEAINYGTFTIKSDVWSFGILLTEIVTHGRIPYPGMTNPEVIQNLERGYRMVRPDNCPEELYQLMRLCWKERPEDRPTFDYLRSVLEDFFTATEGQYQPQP
Src, sequence (P12931 whole entry): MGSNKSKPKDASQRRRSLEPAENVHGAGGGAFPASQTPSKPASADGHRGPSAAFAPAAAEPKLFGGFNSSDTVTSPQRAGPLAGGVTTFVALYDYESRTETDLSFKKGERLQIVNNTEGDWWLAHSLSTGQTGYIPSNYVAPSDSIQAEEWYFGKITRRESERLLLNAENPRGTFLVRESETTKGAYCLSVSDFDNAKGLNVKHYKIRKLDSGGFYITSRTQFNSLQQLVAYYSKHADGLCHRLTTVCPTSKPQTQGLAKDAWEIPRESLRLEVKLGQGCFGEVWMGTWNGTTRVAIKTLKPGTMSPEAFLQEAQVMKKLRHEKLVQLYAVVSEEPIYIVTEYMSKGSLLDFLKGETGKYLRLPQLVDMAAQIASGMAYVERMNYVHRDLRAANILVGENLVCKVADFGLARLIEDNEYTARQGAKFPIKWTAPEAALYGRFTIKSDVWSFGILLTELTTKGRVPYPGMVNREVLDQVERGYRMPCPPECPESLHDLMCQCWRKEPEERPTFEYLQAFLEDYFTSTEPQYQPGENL
RET, sequence (P07949 29-1114): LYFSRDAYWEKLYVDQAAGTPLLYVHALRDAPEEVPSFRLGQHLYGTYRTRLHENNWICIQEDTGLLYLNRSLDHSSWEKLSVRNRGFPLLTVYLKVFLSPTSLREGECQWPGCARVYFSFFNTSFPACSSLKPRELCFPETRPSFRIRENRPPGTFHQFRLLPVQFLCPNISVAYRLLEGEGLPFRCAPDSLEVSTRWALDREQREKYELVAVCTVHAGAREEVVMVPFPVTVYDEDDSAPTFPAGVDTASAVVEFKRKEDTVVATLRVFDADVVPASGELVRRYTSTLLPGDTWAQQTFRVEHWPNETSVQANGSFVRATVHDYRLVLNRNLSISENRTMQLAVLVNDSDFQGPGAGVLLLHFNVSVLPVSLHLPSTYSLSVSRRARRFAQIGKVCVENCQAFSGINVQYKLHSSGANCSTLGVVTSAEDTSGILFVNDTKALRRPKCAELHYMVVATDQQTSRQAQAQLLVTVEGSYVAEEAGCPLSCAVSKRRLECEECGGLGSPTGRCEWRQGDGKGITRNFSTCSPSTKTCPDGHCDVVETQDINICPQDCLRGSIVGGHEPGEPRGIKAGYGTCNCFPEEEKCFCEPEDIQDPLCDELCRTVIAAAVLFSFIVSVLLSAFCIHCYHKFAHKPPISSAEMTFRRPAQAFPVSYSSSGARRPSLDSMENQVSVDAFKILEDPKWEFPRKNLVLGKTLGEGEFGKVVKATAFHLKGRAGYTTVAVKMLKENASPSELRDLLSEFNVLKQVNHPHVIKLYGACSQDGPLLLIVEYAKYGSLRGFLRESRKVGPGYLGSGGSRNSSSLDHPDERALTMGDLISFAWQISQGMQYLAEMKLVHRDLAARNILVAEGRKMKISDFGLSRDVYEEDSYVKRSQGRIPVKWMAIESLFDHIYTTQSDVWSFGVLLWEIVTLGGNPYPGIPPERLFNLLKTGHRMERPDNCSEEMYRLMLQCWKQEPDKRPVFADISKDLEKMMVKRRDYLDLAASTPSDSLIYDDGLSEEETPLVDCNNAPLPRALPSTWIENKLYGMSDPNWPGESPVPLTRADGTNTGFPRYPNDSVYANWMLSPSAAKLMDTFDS
MAPK8 (JNK1), sequence (P45983 whole entry): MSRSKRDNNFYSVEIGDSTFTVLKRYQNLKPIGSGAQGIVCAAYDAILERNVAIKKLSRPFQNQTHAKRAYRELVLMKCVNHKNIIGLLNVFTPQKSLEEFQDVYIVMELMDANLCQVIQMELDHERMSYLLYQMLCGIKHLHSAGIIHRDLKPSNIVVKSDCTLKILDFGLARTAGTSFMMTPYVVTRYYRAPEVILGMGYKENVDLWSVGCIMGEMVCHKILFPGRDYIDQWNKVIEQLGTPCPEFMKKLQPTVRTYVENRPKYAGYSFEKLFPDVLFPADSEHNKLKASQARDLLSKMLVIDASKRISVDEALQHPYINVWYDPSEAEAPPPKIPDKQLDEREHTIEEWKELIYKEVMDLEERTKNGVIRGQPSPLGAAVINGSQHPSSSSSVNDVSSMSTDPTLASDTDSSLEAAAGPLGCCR

O=c1c2cnc(Nc3ccc(N4CCNCC4)cc3)nc2ccn1-c1c(Cl)cccc1Cl [Example 1, 6-(2,6-Dichlorophenyl)-2-((4-(piperazin-1-yl)phenyl)amino)pyrido[4,3-d]pyrimidin-5(6H)-one]
Inhibition CSNK1G2 (CK1 gamma 2) (CSNK1G2 (CK1 gamma 2)): − (Inhibition <75% @ 300-350 nM) | Inhibition IKBKB (IKK beta) (IKBKB (IKK beta)): − (Inhibition <75% @ 300-350 nM) | Inhibition PDGFRB (PDGFR beta) (PDGFRB (PDGFR beta)): − (Inhibition <75% @ 300-350 nM) | Inhibition IRAK4 (IRAK4): − (Inhibition <75% @ 300-350 nM) | Inhibition MET (cMet) (MET (cMet)): − (Inhibition <75% @ 300-350 nM) | Inhibition RPS6KA3 (RSK2) (RPS6KA3 (RSK2)): − (Inhibition <75% @ 300-350 nM) | Inhibition MAP2K1 (MEK1) (MAP2K1 (MEK1)): − (Inhibition <75% @ 300-350 nM) | Inhibition CHEK1 (CHK1) (CHEK1 (CHK1)): − (Inhibition <75% @ 300-350 nM) | Inhibition PLK1 (PLK1): − (Inhibition <75% @ 300-350 nM) | Inhibition DYRK3 (DYRK3): − (Inhibition <75% @ 300-350 nM) | Inhibition NTRK1 (TRKA) (NTRK1 (TRKA)): − (Inhibition <75% @ 300-350 nM) | Inhibition FGFR1 (FGFR1): − (Inhibition <75% @ 300-350 nM) | Inhibition AMPK A1/B1/G1 (AMPK A1/B1/G1): − (Inhibition <75% @ 300-350 nM) | Inhibition PRKACA (PKA) (PRKACA (PKA)): − (Inhibition <75% @ 300-350 nM) | Inhibition IGF1R (IGF1R): − (Inhibition <75% @ 300-350 nM) | Inhibition LCK (LCK): − (Inhibition <75% @ 300-350 nM) | microsomal CLint at 1 μM [1]: ≤ 20 µL/min/mg | Inhibition ABL1 (ABL1): + (Inhibition >75% at 300-350 nM) | Inhibition KDR (VEGFR2) (KDR (VEGFR2)): − (Inhibition <75% @ 300-350 nM) | Inhibition SRC (Src): − (Inhibition <75% @ 300-350 nM) | Inhibition RET (RET): − (Inhibition <75% @ 300-350 nM) | Inhibition BTK (BTK): − (Inhibition <75% @ 300-350 nM) | Inhibition FLT3 (FLT3): − (Inhibition <75% @ 300-350 nM) | Inhibition MAPK8 (JNK1) (MAPK8 (JNK1)): − (Inhibition <75% @ 300-350 nM) | Inhibition ROCK1 (ROCK1): − (Inhibition <75% @ 300-350 nM) | Inhibition EGFR (ErbB1) (EGFR (ErbB1)): − (Inhibition <75% @ 300-350 nM) | Inhibition CDK1/cyclin B (CDK1/cyclin B): − (Inhibition <75% @ 300-350 nM) | Inhibition MAP4K4 (HGK) (MAP4K4 (HGK)): − (Inhibition <75% @ 300-350 nM) | Inhibition AURKA (Aurora A) (AURKA (Aurora A)): − (Inhibition <75% @ 300-350 nM) | Inhibition PHKG2 (PHKG2): − (Inhibition <75% @ 300-350 nM) | Inhibition GSK3B (GSK3 beta) (GSK3B (GSK3 beta)): − (Inhibition <75% @ 300-350 nM) | Inhibition SYK (SYK): − (Inhibition <75% @ 300-350 nM) | Inhibition AKT1 (PKB alpha) (AKT1 (PKB alpha)): − (Inhibition <75% @ 300-350 nM)
